The values below come from patent US8951752B2, “N-demethyase genes and uses thereof” (priority 2011, dated 2015).

The target in this experiment is T1, NdmA-His6 (Pseudomonas putida, UniProt H9N289).
T1 construct: made in house; host or cells: E. coli BL21(DE3)
T1 sequence (H9N289 1-351): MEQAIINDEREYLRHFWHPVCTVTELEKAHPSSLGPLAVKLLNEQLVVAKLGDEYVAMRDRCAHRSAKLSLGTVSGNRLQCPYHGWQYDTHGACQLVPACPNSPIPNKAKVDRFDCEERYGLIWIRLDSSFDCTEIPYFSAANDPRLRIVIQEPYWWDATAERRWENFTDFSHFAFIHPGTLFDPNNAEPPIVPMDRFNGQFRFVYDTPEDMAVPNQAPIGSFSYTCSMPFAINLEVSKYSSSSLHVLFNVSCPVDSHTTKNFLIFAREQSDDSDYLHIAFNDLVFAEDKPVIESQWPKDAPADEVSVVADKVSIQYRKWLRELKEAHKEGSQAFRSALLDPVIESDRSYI
Kind of experiment: Methylxanthine N-demethylase assay and kinetics, NdmA-His6 with His6-NdmD. The class given is biochemical, Pseudomonas putida CBB5. On the procedure:
Methylxanthine N-demethylase activity assay contained, in 1-ml total volume, 0.5 mM methylxanthine, 1 mM NADH, 50 μM Fe(NH4)2(SO4)2, and an appropriate amount of NdmA-His6 or NdmB-His6 (7.4 μg-2.5 mg protein depending on substrate specificity) in 50 mM KPi buffer (pH 7.5). Approximately 4 U of partially purified reductase, prepared as described previously (Summers et al., 2011) or 59 U of purified His6-NdmD was added to reaction mixture. Catalase from bovine liver (4,000 U) was also added to reactions containing His6-NdmD. The reaction mixture was incubated at 30° C. with 300 rpm shaking on an incubating microplate shaker (VWR, Radnor, Pa.). Periodically, a small aliquot was sampled from the reaction mixture and mixed with equal volume of acetonitrile for quantifying concentrations of methylxanthines and N-demethylated products by HPLC. One unit of N-demethylase activity was defined as the consumption of one […] methylxanthine per minute.
Apparent kinetic parameters of NdmA-His6 and NdmB-His6 were determined by measuring the initial rate of disappearance (vo) of methylxanthines in 50 mM KPi buffer (pH 7.5) at 30° C. The initial substrate concentrations (ESI) used in these experiments were from 25 to 500 μM. Substrates were incubated with His6-NdmD plus either NdmA-His6 or NdmB-His6 under standard conditions for 15 minutes. At 1, 5, 10, and 15 minutes, samples were removed from the reaction mixtures to quantitate substrate concentrations by HPLC. Plots of substrate concentrations against time were used to determine the initial rates of disappearance of substrates which were linear over 15 minutes. The apparent kinetic parameters were determined from Michaelis-Menten plots of vo against [S] fitted with the equation

As for `Cn1cnc2c1c(=O)[nH]c(=O)n2C` [Theobromine, 3,7-dimethylxanthine], for the setting “NdmA”, the “N-demethylase activity” value is “inactive”. The Km entry (NdmA-His6, 30° C., pH 7.5, ∞ where no activity) is given as “∞”.
